Data from paper PMC9515143, “Phosphorylation of Jhd2 by the Ras-cAMP-PKA(Tpk2) pathway regulates histone modifications and autophagy” (Nature Communications, 2022).

How the values were obtained:
[1] = test system: WT cells; experiment: Intracellular Jhd2 phosphorylation in WT cells with 1NM-PP1; type: cell-based, budding yeast (Saccharomyces cerevisiae); conditions: 25 μM 1NM-PP1, 0.5 hr, Western blot
Experimental: (§1) To examine the effect of glucose on histone modifications, yeast cells were grown in 2% glucose-containing YPD (Yeast Extract Peptone Dextrose) medium until OD600 of 0.7–1.0. Cells were then collected, washed and resuspended in YP medium for 3 hr followed by treatment with different concentrations of glucose for 0.5 hr. For 1NM-PP1 (MCE, HY-13804) treatment, cells were grown in 2% YPD until OD600 of 0.7–1.0. Cells were then treated with 25 μM 1NM-PP1 for 0.5 hr. For FBP and pyruvate treatment, cells were pre-treated with Zymolase (Mpbio, 08320921) to increase the permeability. In brief, cells were grown in YPD medium until OD600 of 0.7–1.0, centrifuged and resuspended in 1 ml SB buffer (100 mM Sorbitol, 20 mM Tris pH 7.4). 10 μl Zymolase was then added and incubated at 30 °C for 15 min. The spheroplasts were washed and cultured in YPD medium containing different concentrations of FBP and pyruvate for 3 hr.
(§2) Cells were grown in 5 ml YPD or selective medium until OD600 of 0.7–1.0. Cells were harvested and lysed in alkaline lysis buffer (2 M NaOH, 8% 2-mercaptoethanol). After centrifugation, the protein pellet was resuspended in 150 μl 2×SDS-sample buffer. Protein samples were separated by 8–15% SDS-PAGE and transferred to PVDF membrane. […] The protein bands were visualized using the ECL Chemiluminescence Detection Kit (Bio-Rad, 170–5061) and quantified with Image J software (v.1.8.0). […]

[2] = test system: Tpk1-as; experiment: Intracellular H3K4me3 in Tpk1-as mutant with 1NM-PP1; type: cell-based, budding yeast (Saccharomyces cerevisiae); conditions: 25 μM 1NM-PP1, 0.5 hr, Western blot
Experimental: as §1, §2

[3] = test system: Tpk3-as; experiment: Intracellular H3K4me3 in Tpk3-as mutant with 1NM-PP1; type: cell-based, budding yeast (Saccharomyces cerevisiae); conditions: 25 μM 1NM-PP1, 0.5 hr, Western blot
Experimental: as §1, §2

[4] = test system: WT Tpk2; experiment: In vitro kinase assay, WT Tpk2, Jhd2 substrate; type: biochemical, budding yeast (Saccharomyces cerevisiae); conditions: 25 μM 1NM-PP1, in vitro kinase assay, 30 °C, Western blot
Experimental: (§3) 0–300 ng purified Jhd2 was mixed with or without 200 ng TAP purified Tpk2 in 2×kinase reaction buffer (100 mM Tris-HCl pH 7.4, 100 mM MgCl2, 10 mM ATP, 0.2 μM PMSF, 1 mM Na3VO4, 5% glycerol) at 30 °C. Equal aliquots were taken at different time points, and the reaction was quenched by adding 2×SDS-PAGE loading buffer and incubated at 95 °C for 10 min. Boiled samples were resolved on 10% SDS-PAGE and subjected to Western blot analysis.

[5] = test system: Tpk2-as; experiment: Intracellular Jhd2 phosphorylation in Tpk2-as mutant with 1NM-PP1; type: cell-based, budding yeast (Saccharomyces cerevisiae); conditions: 25 μM 1NM-PP1, 0.5 hr, Western blot
Experimental: as §1, §2

[6] = test system: Tpk2-as; experiment: In vitro kinase assay, Tpk2-as, Jhd2 substrate; type: biochemical, budding yeast (Saccharomyces cerevisiae); conditions: 25 μM 1NM-PP1, in vitro kinase assay, 30 °C, Western blot
Experimental: as §3

[7] = test system: Tpk2-as; experiment: Intracellular H3K4me3 in Tpk2-as mutant with 1NM-PP1; type: cell-based, budding yeast (Saccharomyces cerevisiae); conditions: 25 μM 1NM-PP1, 0.5 hr, Western blot
Experimental: as §1, §2

CC(C)(C)n1nc(Cc2cccc3ccccc23)c2c(N)ncnc21 [1NM-PP1]
intracellular Jhd2 phosphorylation, WT cells [1]: significantly reduced in Tpk2-as mutant but not WT cells
intracellular H3K4me3, Tpk1-as mutant [2]: significantly reduced by 1NM-PP1 in Tpk2-as mutant but not Tpk1-as and Tpk3-as mutants
intracellular H3K4me3, Tpk3-as mutant [3]: significantly reduced by 1NM-PP1 in Tpk2-as mutant but not Tpk1-as and Tpk3-as mutants
Jhd2 phosphorylation in vitro, WT Tpk2 [4]: Jhd2 was phosphorylated by WT Tpk2 but not Tpk2-as mutant when treated with 25 μM 1NM-PP1
intracellular Jhd2 phosphorylation, Tpk2-as mutant [5]: significantly reduced in Tpk2-as mutant
inhibition of Tpk2-catalyzed Jhd2 phosphorylation in vitro, Tpk2-as [6]: directly inhibited Tpk2-catalyzed Jhd2 phosphorylation
intracellular H3K4me3, Tpk2-as mutant [7]: significantly reduced by 1NM-PP1 in Tpk2-as mutant
